Reference: PMC11265914, “Unravelling nicotinic receptor and ligand features underlying neonicotinoid knockdown actions on the malaria vector mosquito Anopheles gambiae” (Open Biology, 2024)

Biological target: T1, Ls-AChBP (Lymnaea stagnalis, UniProt P58154, Q74R)
T1 construct: over-expressed in Pichia pastoris, deglycosylated, purified; homo-pentamer
Assay: X-ray crystal structure of the complex
Format: binding
Conditions: cocrystallized with 1 mM dinotefuran, PEG4000, 0.2 M sodium citrate pH 5.4, 20 °C; all five orthosteric sites

SMILES: CNC(=N[N+](=O)[O-])NC[C@@H]1CCOC1 [dinotefuran]
- X-ray crystal structure of the complex: Dinotefuran bound to all five orthosteric sites of the protein
